assay: Henry solubility constant Hcp at 298.15 K (mol/(m3 Pa)); settings: reference: Ji et al. (2008)

Compound	Henry solubility constant Hcp
CC(=O)c1ccccc1 [1-phenylethanone]	1.2
COc1ccccc1C=O [2-methoxybenzaldehyde]	10
Cc1ccccc1C=O [2-methylbenzaldehyde]	0.31
CC(=O)c1ccccc1O [2′-hydroxyacetophenone]	1
COc1ccccc1C(C)=O [2′-methoxyacetophenone]	17
CC(=O)c1ccccc1C [2′-methylacetophenone]	0.76
COc1cccc(C=O)c1 [3-methoxybenzaldehyde]	5.1
Cc1cccc(C=O)c1 [3-methylbenzaldehyde]	0.35
COc1cccc(C(C)=O)c1 [3′-methoxyacetophenone]	19
CC(=O)c1cccc(C)c1 [3′-methylacetophenone]	1.5
CC(=O)c1ccc(C)cc1 [4'-methylacetophenone]	1.8
COc1ccc(C=O)cc1 [4-methoxybenzaldehyde]	24
CCC(=O)c1ccccc1 [phenyl ethyl ketone]	0.99

From Sander's compilation of Henry's law constants (doi:10.1021/je700612b)
